# Data taken from US8729020B2, “Methods for the treatment of aortic fibrosis with VIP fragments” (Vectus Biosystems Pty Ltd, priority 2009, dated 2014).
# Tested on: Male SHR rats on 2.2% salt diet
# Assay: Effect of VIP/VIP fragment infusion on aortic fibrosis in rat model of fibrosis
# Format: in vivo
# Details: 4 weeks intravenous infusion at 5 pmol/kg/min by osmotic minipump, vs vehicle control, fibrosis quantified as percent surface area
# Source text: Two animal models of aortic fibrosis were used (animals obtained from Australian Animal Resources, Perth, Western Australia, Australia)
# i) Male SHR rats on 2.2% salt diet
# In each model the rats were randomised to VIP (1-28), VIP (4-12), VIP (4-16), VIP (4-10), VIP (4-20), VIP (4-24), VIP (10-28), VIP (16-20), VIP (16-24), VIP (16-28), VIP (6-10), VIP (6-12), VIP (6-16), VIP (6-20), VIP (6-24), and VIP (6-28). All peptides were obtained from or synthesised by Auspep, Australia. VIP fragments were dissolved in Hartman's solution for subsequent infusion studies. Commencing at 12 weeks of age, the rats were acclimatized to tail cuff blood pressure measurements and handling for 2 weeks. They then underwent operative insertion of an osmotic minipump (Alzet) which was designed to deliver vehicle alone (Hartman's solution, (Baxter Health Care Corporation)-(Controls)) or VIP, VIP fragment at a dose of 5 pmol/kg/min intravenously.
# The infusion was continued for 4 weeks, during which the rats were weighed and their blood pressures measured twice weekly. […]
# For quantitation of aortic fibrosis, twenty fields from each aorta were digitized and the amount of fibrosis in each determined as percent surface area using Image-Pro Plus V5.0 software. The mean value for each rat and subsequently for each infusion group was then determined.
substance,measurement,value
His-Ser-Asp-Ala-Val-Phe-Thr-Asp-Asn-Tyr-Thr-Arg-Leu-Arg-Lys-Gln-Met-Ala-Val-Lys-Lys-Tyr-Leu-Asn-Ser-Ile-Leu-Asn (HSDAVFTDNYTRLRKQMAVKKYLNSILN; listed as Homo sapiens) [VIP],aortic fibrosis (fibrosis within the aortic wall),reductions in aortic fibrosis
